According to ChEMBL document CHEMBL1201862, “PubChem BioAssay data set” (2004):
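Briefly, cells in 96-well plates were exposed to five compound concentrations for 48 h, and endpoints were estimated by linear interpolation. At the GI50, growth is halved.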 The source made the active and inactive calls. Rule as the data show it: active = GI50 up to about 1.1 µM and inactive = higher.

Key:
Assay in all cases: inhibition of tumour cell growth, NCI panel, 48 h
A549 = tested on: A549
SK-MEL-5 = tested on: SK-MEL-5
OVCAR-4 = tested on: OVCAR-4
RPMI-8226 = tested on: RPMI-8226
COLO 205 = tested on: COLO 205
786-0 = tested on: 786-0
M14 = tested on: M14
SNB-19 = tested on: SNB-19
SF-295 = tested on: SF-295
NCI-H460 = tested on: NCI-H460
SK-OV-3 = tested on: SK-OV-3
LOX IMVI = tested on: LOX IMVI
HOP-62 = tested on: HOP-62
HOP-92 = tested on: HOP-92
Hs-578T = tested on: Hs-578T
SF-539 = tested on: SF-539
SR = tested on: SR
NCI-H522 = tested on: NCI-H522
HT-29 = tested on: HT-29
PC-3 = tested on: PC-3

Compound | GI50 (A549) | GI50 (SK-MEL-5) | GI50 (OVCAR-4) | GI50 (RPMI-8226) | GI50 (COLO 205) | GI50 (786-0) | GI50 (M14) | GI50 (SNB-19) | GI50 (SF-295) | GI50 (NCI-H460) | GI50 (SK-OV-3) | GI50 (LOX IMVI) | GI50 (HOP-62) | GI50 (HOP-92) | GI50 (Hs-578T) | GI50 (SF-539) | GI50 (SR) | GI50 (NCI-H522) | GI50 (HT-29) | GI50 (PC-3)
Cc1ccc2c3c1O[C@H]1c4nc5ccccc5cc4C[C@@]4(O)[C@@H](C2)N(CC2CC2)CC[C@]314 | 6.4 µM (inactive) | 7.18 µM (inactive) | 13.4 µM (inactive) | 4.63 µM (inactive) | 5.2 µM (inactive) | 10.8 µM (inactive) | 12.5 µM (inactive) | 12.8 µM (inactive) | 7.64 µM (inactive) | 20 µM (inactive) | 14.1 µM (inactive) | 4.47 µM (inactive) | 12.1 µM (inactive) | 19.9 µM (inactive) | 8.69 µM (inactive) | 4.68 µM (inactive) | 3.86 µM (inactive) | 13.7 µM (inactive) | 3.31 µM (inactive) | 3.95 µM (inactive)
COCC(=O)OC1CCn2c1nc1c2C(=O)C(C)=C(NC(C)=O)C1=N (stereo not given) | 21.3 µM (inactive) | 2.42 µM (inactive) | 2.19 µM (inactive) | 2.27 µM (inactive) | 12.5 µM (inactive) | 3.03 µM (inactive) | 4.95 µM (inactive) | 17.9 µM (inactive) | 16.1 µM (inactive) | 14 µM (inactive) | 17.7 µM (inactive) | 2.53 µM (inactive) | 15.6 µM (inactive) | 3.57 µM (inactive) | 4.1 µM (inactive) | 2.07 µM (inactive) | 2.64 µM (inactive) | 5.01 µM (inactive) | 4.21 µM (inactive) | 2.58 µM (inactive)
Cc1ccc2c(sc(-c3ccc4c(c3)sc(-c3ccc(N(C)C)cc3)[n+]4C)[n+]2C)c1S(=O)(=O)O.Cc1ccc2c(sc(-c3ccc4c(c3)sc(-c3ccc5c(c3)sc(-c3ccc(N(C)C)cc3)[n+]5C)[n+]4C)[n+]2C)c1S(=O)(=O)O | > 100 µM (inactive) | > 100 µM (inactive) | 43 µM (inactive) | 80.2 µM (inactive) | > 100 µM (inactive) | > 100 µM (inactive) | > 100 µM (inactive) | > 100 µM (inactive) | > 100 µM (inactive) | 10 µM (inactive) | > 100 µM (inactive) | > 100 µM (inactive) | – | > 100 µM (inactive) | 72.4 µM (inactive) | > 100 µM (inactive) | 1 µM (active) | 30.4 µM (inactive) | > 100 µM (inactive) | > 100 µM (inactive)
C=[N+](CNC(=O)CNC(=O)C(Cc1ccccc1)NC(=O)OC(C)(C)C)C(=O)CNC(=O)C(Cc1ccccc1)NC(=O)OC(C)(C)C (stereo not given) | > 100 µM (inactive) | > 100 µM (inactive) | > 100 µM (inactive) | > 100 µM (inactive) | > 100 µM (inactive) | > 100 µM (inactive) | > 100 µM (inactive) | > 100 µM (inactive) | > 100 µM (inactive) | > 100 µM (inactive) | > 100 µM (inactive) | > 100 µM (inactive) | > 100 µM (inactive) | > 100 µM (inactive) | > 100 µM (inactive) | > 100 µM (inactive) | > 100 µM (inactive) | > 100 µM (inactive) | > 100 µM (inactive) | > 100 µM (inactive)
C[N+]1(CC[N+]2(C)CCCC2c2cccnc2)CCCC1c1cccnc1 (stereo not given) | > 100 µM (inactive) | > 100 µM (inactive) | > 100 µM (inactive) | 97.7 µM (inactive) | 86.1 µM (inactive) | 30.4 µM (inactive) | > 100 µM (inactive) | > 100 µM (inactive) | > 100 µM (inactive) | > 100 µM (inactive) | > 100 µM (inactive) | > 100 µM (inactive) | > 100 µM (inactive) | > 100 µM (inactive) | > 100 µM (inactive) | > 100 µM (inactive) | > 100 µM (inactive) | > 100 µM (inactive) | 50.6 µM (inactive) | > 100 µM (inactive)
O=C(/C=C/c1ccc([N+](=O)[O-])cc1)c1nc2ccccc2[nH]1 | > 45.9 µM (inactive) | 52.2 µM (inactive) | > 66.1 µM (inactive) | 5.73 µM (inactive) | 58.7 µM (inactive) | 27.4 µM (inactive) | > 88.9 µM (inactive) | > 93.3 µM (inactive) | > 100 µM (inactive) | 11.4 µM (inactive) | > 100 µM (inactive) | 24.3 µM (inactive) | > 34.2 µM (inactive) | 45.5 µM (inactive) | > 45.8 µM (inactive) | 26.9 µM (inactive) | 2.49 µM (inactive) | 32.9 µM (inactive) | 38.5 µM (inactive) | > 64.4 µM (inactive)
CCCc1nc(Cl)nc(Cl)c1Cl | 2.22 µM (inactive) | 0.935 µM (active) | 0.0871 µM (active) | 0.258 µM (active) | 0.232 µM (active) | 0.127 µM (active) | 0.336 µM (active) | 1.16 µM (inactive) | 2.33 µM (inactive) | 0.505 µM (active) | 3.01 µM (inactive) | 0.0865 µM (active) | 0.908 µM (active) | 0.0104 µM (active) | 0.475 µM (active) | 1.52 µM (inactive) | < 0.0154 µM (active) | 0.374 µM (active) | 0.269 µM (active) | 0.438 µM (active)
COC(=O)/C=C1\CCCN1CCc1cc2c(cc1CC#N)OCO2 | > 100 µM (inactive) | 25.6 µM (inactive) | 51.3 µM (inactive) | 37 µM (inactive) | 35.2 µM (inactive) | 52.7 µM (inactive) | 71.1 µM (inactive) | 60 µM (inactive) | 38.5 µM (inactive) | 36 µM (inactive) | 34.9 µM (inactive) | > 100 µM (inactive) | 52.4 µM (inactive) | > 100 µM (inactive) | > 100 µM (inactive) | 46.8 µM (inactive) | 16.5 µM (inactive) | > 100 µM (inactive) | 32.2 µM (inactive) | > 100 µM (inactive)
O=C(O)CC(Nc1ccccc1)C(=O)O (stereo not given) | > 100 µM (inactive) | > 100 µM (inactive) | > 100 µM (inactive) | > 100 µM (inactive) | > 100 µM (inactive) | > 100 µM (inactive) | > 100 µM (inactive) | > 100 µM (inactive) | > 100 µM (inactive) | > 100 µM (inactive) | > 100 µM (inactive) | > 100 µM (inactive) | > 100 µM (inactive) | > 100 µM (inactive) | > 100 µM (inactive) | > 100 µM (inactive) | > 100 µM (inactive) | > 100 µM (inactive) | > 100 µM (inactive) | > 100 µM (inactive)
COc1c(O)c(O)cc2c1-c1ccc(OC)c(=O)cc1C(NC(C)=O)CC2 (stereo not given) | 37.4 µM (inactive) | 2.52 µM (inactive) | 22.6 µM (inactive) | 10.9 µM (inactive) | 3.13 µM (inactive) | 8.04 µM (inactive) | 3.78 µM (inactive) | 5.51 µM (inactive) | 5.13 µM (inactive) | 6.07 µM (inactive) | 5.35 µM (inactive) | 4.84 µM (inactive) | 7.6 µM (inactive) | 2.7 µM (inactive) | 2.66 µM (inactive) | 2.81 µM (inactive) | 3.24 µM (inactive) | 1.84 µM (inactive) | 3.07 µM (inactive) | 6.62 µM (inactive)
C=CC[C@]1(C2=NC(C)(C)CO2)c2ccccc2-c2ccccc2[C@H]1C(C)=O | 9.31 µM (inactive) | 3.54 µM (inactive) | 15.6 µM (inactive) | 7.23 µM (inactive) | 4.41 µM (inactive) | 9.71 µM (inactive) | 7.76 µM (inactive) | 11.6 µM (inactive) | 4.61 µM (inactive) | 6.03 µM (inactive) | 9.31 µM (inactive) | 10.6 µM (inactive) | 0.643 µM (active) | 16.4 µM (inactive) | 6.5 µM (inactive) | 10.8 µM (inactive) | 3.27 µM (inactive) | 2.61 µM (inactive) | 4.19 µM (inactive) | 6.41 µM (inactive)
C[C@]12CCC(O)CC1=CC[C@@H]1[C@@H]2CC[C@]2(C)C(O)[C@H](n3ccnc3)C[C@@H]12 (stereo not given in full) | 81.7 µM (inactive) | 28.1 µM (inactive) | > 100 µM (inactive) | 22.4 µM (inactive) | 47.4 µM (inactive) | > 100 µM (inactive) | > 100 µM (inactive) | 90.4 µM (inactive) | 52 µM (inactive) | 24.8 µM (inactive) | – | 39.2 µM (inactive) | – | 20.2 µM (inactive) | > 100 µM (inactive) | 64.1 µM (inactive) | 13.1 µM (inactive) | 58.6 µM (inactive) | 8.17 µM (inactive) | 41.5 µM (inactive)
O=C1N(Cc2ccccc2)C2CSCC2N1Cc1ccccc1 (stereo not given) | 40 µM (inactive) | 15.4 µM (inactive) | 69.2 µM (inactive) | 23.5 µM (inactive) | 16.8 µM (inactive) | – | 10.5 µM (inactive) | 63.2 µM (inactive) | 37.3 µM (inactive) | 18.3 µM (inactive) | 27.4 µM (inactive) | 30.2 µM (inactive) | 1.85 µM (inactive) | 23 µM (inactive) | 18.6 µM (inactive) | 24.5 µM (inactive) | 37.2 µM (inactive) | 3.94 µM (inactive) | 16.7 µM (inactive) | 29.6 µM (inactive)
CSc1nc2c3ccccc3ccn2c1C(=O)N/N=C/c1ccccc1 | 56.9 µM (inactive) | > 74.8 µM (inactive) | 14.1 µM (inactive) | > 100 µM (inactive) | > 73.6 µM (inactive) | 15.5 µM (inactive) | > 100 µM (inactive) | – | 24 µM (inactive) | 17.3 µM (inactive) | 19.6 µM (inactive) | > 100 µM (inactive) | 13 µM (inactive) | 1.65 µM (inactive) | 30.8 µM (inactive) | 1.43 µM (inactive) | 41.9 µM (inactive) | > 94.4 µM (inactive) | > 100 µM (inactive) | > 100 µM (inactive)
